For 28 compounds, IC50 results are on record in US9850225B2, “Compounds useful as immunomodulators” (BRISTOL-MYERS SQUIBB COMPANY, priority 2014, dated 2017).

Counter-ions that a name gives are not always drawn. Like-named read-outs stand apart in the source and are kept apart here.

This experiment has as its target PD-1/PD-L1 interaction (PD-1-Ig / PD-L1-His) (Homo sapiens (Human), UniProt Q9NZQ7). The experiment in a line: PD-1/PD-L1 Homogenous Time-Resolved Fluorescence (HTRF) binding assay. Particulars: PD-1/PD-L1 HTRF binding assay, read-out: Range or IC50. The procedure, abridged:
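Human PD-L1-His (10 nM final) was pre-incubated with inhibitor for 15 min, then PD-1-Ig (20 nM final) was added for a further 15 min in dPBS with 0.1% BSA and 0.05% Tween-20. Binding was detected by HTRF using Eu-cryptate anti-Ig (1 nM) and APC anti-His (20 nM).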
(In general: In TR-FRET formats the signal depends on donor and acceptor labels being close together.)

Chain of PD-1/PD-L1 interaction (PD-1-Ig / PD-L1-His) (Q9NZQ7 other isoform, or with tags, fused parts or gaps): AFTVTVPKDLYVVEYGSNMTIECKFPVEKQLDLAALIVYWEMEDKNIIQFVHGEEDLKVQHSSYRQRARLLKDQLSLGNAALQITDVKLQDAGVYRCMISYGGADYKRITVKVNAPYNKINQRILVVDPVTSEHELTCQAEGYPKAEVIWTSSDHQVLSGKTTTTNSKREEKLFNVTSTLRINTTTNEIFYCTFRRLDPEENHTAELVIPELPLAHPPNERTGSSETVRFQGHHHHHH

The term IC50 denotes the concentration needed to halve the response being measured. `Cc1c(COc2cc(OCc3cncc(C#N)c3)c(CN3CCCC[C@H]3C(=O)O)cc2Cl)cccc1-c1ccc2c(c1)OCCO2` [Example 1253, (S)-1-(5-chloro-2-((5-cyanopyridin-3-yl)methoxy)-4-((3-(2,3-dihydrobenzo[b][1,4]dioxin-6-yl)-2-methylbenzyl)oxy)benzyl)piperidine-2-carboxylic acid, TFA salt]: the IC50 (value given as range class) fell in the range of 0.6 to 10 nM.
On the same count and under the same terms, the figure for `CC(=O)NCCNCc1ccc(OCc2cccc(-c3ccccc3)c2C)cc1OCc1ccccc1OC(F)F` [Example 1085, N-(2-((2-((2-(difluoromethoxy)benzyl)oxy)-4-((2-methyl-[1,1′-biphenyl]-3-yl)methoxy)benzyl)amino)ethyl)acetamide] is 100 to 20000 nM; for `CC(=O)NCCNCc1ccc(OCc2cccc(-c3ccccc3)c2C)cc1OC[C@@H]1CCC(=O)N1` [Example 1120, (S)—N-(2-((4-((2-methyl-[1,1′-biphenyl]-3-yl)methoxy)-2-((5-oxopyrrolidin-2-yl)methoxy)benzyl)amino)ethyl)acetamide] it is 10 to 100 nM.
Still for that read-out and setting: the same measure for `Cc1c(COc2cc(OCc3cncc(C#N)c3)c(CN3CCCC[C@H]3C(=O)O)cc2Br)cccc1-c1ccccc1` [Example 1298, (S)-1-(5-bromo-2-((5-cyanopyridin-3-yl)methoxy)-4-((2-methylbiphenyl-3-yl)methoxy)benzyl)piperidine-2-carboxylic acid]: 0.6 to 10 nM; for `Cc1cc(CN[C@H](CO)C(=O)O)c(OCc2cncc(C#N)c2)cc1OCc1cccc(-c2ccc3c(c2)OCCO3)c1C#N` [Example 1310, (R)-2-(4-(2-cyano-3-(2,3-dihydrobenzo[b][1,4]dioxin-6-yl)benzyloxy)-2-((5-cyanopyridin-3-yl)methoxy)-5-methylbenzylamino)-3-hydroxypropanoic acid]: 0.6 to 10 nM.
With `CC(=O)NCCNCc1ccc(OCc2cccc(-c3ccccc3)c2C)cc1OCc1cccc(C(=O)c2ccccc2)c1` [Example 1073, N-(2-((2-((3-benzoylbenzyl)oxy)-4-((2-methyl-[1,1′-biphenyl]-3-yl)methoxy)benzyl)amino)ethyl)acetamide], the IC50 (value given as range class) was in the range of 100 to 20000 nM.
In the case of `Cc1c(COc2cc(OCc3cccc(C#N)c3)c(CN[C@@H](C(=O)O)[C@@H](C)O)cc2Cl)cccc1-c1ccc2c(c1)OCCO2` [Example 1163, (2R,3R)-2-((5-chloro-2-((3-cyanobenzyl)oxy)-4-((3-(2,3-dihydrobenzo[b][1,4]dioxin-6-yl)-2-methylbenzyl)oxy)benzyl)amino)-3-hydroxybutanoic acid], under “value given as range class”, the IC50 was 0.6 to 10 nM.
With `Cc1c(COc2cc(OCc3cncc(C#N)c3)c(CN3CCCC[C@H]3C(=O)O)cc2F)cccc1-c1ccc2c(c1)OCCO2` [Example 3002], where the note is “value given as range class”, the IC50 lay in the range of 0.6 to 10 nM.
Still for that read-out and setting: the same measure for `CCOC(=O)Nc1cncc(COc2cc(OCc3cccc(-c4ccc5c(c4)OCCO5)c3C)c(Cl)cc2CN[C@@](C)(CO)C(=O)O)c1` [Example 3009, (S)-2-((5-chloro-4-((3-(2,3-dihydrobenzo[b][1,4]dioxin-6-yl)-2-methylbenzyl)oxy)-2-((5-((ethoxycarbonyl)amino)pyridin-3-yl)methoxy)benzyl)amino)-3-hydroxy-2-methylpropanoic acid]: 0.6 to 10 nM.
Consider `CC(=O)NCCNCc1ccc(OCc2cccc(-c3ccccc3)c2C)cc1OCc1ccccc1[N+](=O)[O-]` [Example 1057, N-(2-((4-((2-methyl-[1,1′-biphenyl]-3-yl)methoxy)-2-((2-nitrobenzyl)oxy)benzyl)amino)ethyl)acetamide], for which the IC50 (numeric value) stood at 986 nM.
Turning to `CC(=O)NCCNCc1ccc(OCc2cccc(-c3ccccc3)c2C)cc1OCc1cccc(C)c1F` [Example 1070, N-(2-((2-((2-fluoro-3-methylbenzyl)oxy)-4-((2-methyl-[1,1′-biphenyl]-3-yl)methoxy)benzyl)amino)ethyl)acetamide], the IC50 (value given as range class) is 100 to 20000 nM.
On the same count and under the same terms, the same measure for `CC(=O)NCCNCc1ccc(OCc2cccc(-c3ccccc3)c2C)cc1OCc1ccc2cn[nH]c2c1` [Example 1102, N-(2-((2-((1H-indazol-6-yl)methoxy)-4-((2-methyl-[1,1′-biphenyl]-3-yl)methoxy)benzyl)amino)ethyl)acetamide]: 100 to 20000 nM.
The same measure, in the same setting: the figure for `CC(=O)NCCNCc1ccc(OCc2cccc(-c3ccccc3)c2C)cc1OCc1cc(F)cc(F)c1` [Example 1062, N-(2-((2-((3,5-difluorobenzyl)oxy)-4-((2-methyl-[1,1′-biphenyl]-3-yl)methoxy)benzyl)amino)ethyl)acetamide] is 100 to 20000 nM; for `Cc1c(COc2ccc(CN[C@@H](CO)CC(=O)O)c(OCc3cccc(C#N)c3)c2)cccc1-c1ccccc1` [Example 1022, (R)-3-((2-((3-cyanobenzyl)oxy)-4-((2-methyl-[1,1′-biphenyl]-3-yl)methoxy)benzyl)amino)-4-hydroxybutanoic acid] it is 0.6 to 10 nM.
Same read-out and setting: the same measure for `COC(=O)c1cccc(COc2cc(OCc3cccc(-c4ccccc4)c3C)ccc2CNCCNC(C)=O)c1` [Example 1034, methyl 3-((2-(((2-acetamidoethyl)amino)methyl)-5-((2-methyl-[1,1′-biphenyl]-3-yl)methoxy)phenoxy)methyl)benzoate]: 100 to 20000 nM; for `CC(=O)NCCNCc1ccc(OCc2cccc(-c3ccccc3)c2C)cc1OCc1cc(C)ccc1F` [Example 1094, N-(2-((2-((2-fluoro-5-methylbenzyl)oxy)-4-((2-methyl-[1,1′-biphenyl]-3-yl)methoxy)benzyl)amino)ethyl)acetamide]: 100 to 20000 nM; for `Cc1c(COc2ccc(CN[C@](C)(CO)C(=O)O)c(OCc3cccc(C#N)c3)c2)cccc1-c1ccc2c(c1)OCCO2` [Example 1127, (R)-2-((2-((3-cyanobenzyl)oxy)-4-((3-(2,3-dihydrobenzo[b][1,4]dioxin-6-yl)-2-methylbenzyl)oxy)benzyl)amino)-3-hydroxy-2-methylpropanoic acid]: 0.6 to 10 nM.
Regarding `COc1cccc(COc2cc(OCc3cccc(-c4ccccc4)c3C)ccc2CNCCNC(C)=O)c1` [Example 1086, N-(2-((2-((3-methoxybenzyl)oxy)-4-((2-methyl-[1,1′-biphenyl]-3-yl)methoxy)benzyl)amino)ethyl)acetamide], under “value given as range class”, the IC50 lay in the range of 100 to 20000 nM.
Consider `COCCCOc1cc(OCc2cccc(-c3ccccc3)c2C)ccc1CNCCNC(C)=O` [Example 1042, N-(2-((2-(3-methoxypropoxy)-4-((2-methyl-[1,1′-biphenyl]-3-yl)methoxy)benzyl)amino)ethyl)acetamide], for which the IC50 (value given as range class) lay within 100 to 20000 nM.
On to `Cc1c(COc2cc(OCc3cccc(C#N)c3)c(CNC3(C(=O)O)CCN(C)CC3)cc2Cl)cccc1-c1ccc2c(c1)OCCO2` [Example 1220, 4-((5-chloro-2-((3-cyanobenzyl)oxy)-4-((3-(2,3-dihydrobenzo[b][1,4]dioxin-6-yl)-2-methylbenzyl)oxy)benzyl)amino)-1-methylpiperidine-4-carboxylic acid], for which, where the note is “numeric value”, the concentration for half-maximal inhibition (IC50) stood at 6.07 nM.
As for `Cc1cc(CN2CCCC[C@H]2C(=O)O)c(OCc2cncc(C#N)c2)cc1OCc1cccc(-c2ccc3c(c2)OCCO3)c1Cl` [Example 1152, (S)-1-(4-(2-chloro-3-(2,3-dihydrobenzo[b][1,4]dioxin-6-yl)benzyloxy)-2-((5-cyanopyridin-3-yl)methoxy)-5-methylbenzyl)piperidine-2-carboxylic acid], the IC50 (value given as range class) lay in the range of 0.6 to 10 nM.
`CCc1cc(CN[C@@](C)(CO)C(=O)O)c(OCc2cccc(C#N)c2)cc1OCc1cccc(-c2ccc3c(c2)OCCO3)c1C` [Example 1290, (S)-2-(2-(3-cyanobenzyloxy)-4-(3-(2,3-dihydrobenzo[b][1,4]dioxin-6-yl) -2-methylbenzyloxy)-5-ethylbenzylamino)-3-hydroxy-2-methylpropanoic acid]: the IC50 (value given as range class) was in the range of 0.6 to 10 nM.
On the same count and under the same terms, the same measure for `Cc1c(COc2ccc(CN[C@H](CO)C(=O)O)c(OCc3cccc(C#N)c3)c2Cl)cccc1-c1ccccc1` [Example 1231, (R)-2-((3-chloro-2-((3-cyanobenzyl)oxy)-4-((2-methyl-[1,1′-biphenyl]-3-yl)methoxy)benzyl)amino)-3-hydroxypropanoic acid]: 100 to 20000 nM; for `CC(=O)NCCNCc1ccc(OCc2cccc(-c3ccccc3)c2C)cc1OCc1ccc(F)cc1F` [Example 1064, N-(2-((2-((2,4-difluorobenzyl)oxy)-4-((2-methyl-[1,1′-biphenyl]-3-yl)methoxy)benzyl)amino)ethyl)acetamide]: 100 to 20000 nM.
On the same count and under the same terms, the figure for `CC(=O)NCCNCc1ccc(OCc2cccc(-c3ccc4c(c3)OCCO4)c2Cl)cc1OCc1cccc(C#N)c1` [Example 1150, N-(2-(4-(2-chloro-3-(2,3-dihydrobenzo[b][1,4]dioxin-6-yl)benzyloxy)-2-(3-cyanobenzyloxy)benzylamino)ethyl)acetamide] is 10 to 100 nM.
The same measure, in the same setting: the same measure for `CC(=O)NCCNCc1cc(Br)c(OCc2cccc(-c3ccc4c(c3)OCCO4)c2C)cc1OCc1cccc(C#N)c1` [Example 1299, N-(2-((5-bromo-2-((3-cyanobenzyl)oxy)-4-((3-(2,3-dihydrobenzo[b][1,4]dioxin-6-yl)-2-methylbenzyl)oxy)benzyl)amino)ethyl)acetamide]: 0.6 to 10 nM.
As for `CC(=O)NCCNCc1ccc(OCc2cccc(-c3ccccc3)c2C)cc1OCc1ccccc1C#N` [Example 1055, N-(2-((2-((2-cyanobenzyl)oxy)-4-((2-methyl-[1,1′-biphenyl]-3-yl)methoxy)benzyl)amino)ethyl)acetamide], the IC50 (value given as range class) lay within 100 to 20000 nM.
As for `COCC(NCc1cc(Cl)c(OCc2cccc(-c3ccc4c(c3)OCCO4)c2C)cc1OCc1cccc(C#N)c1)C(=O)O` (stereo not shown) [Example 1184, 2-((5-chloro-2-((3-cyanobenzyl)oxy)-4-((3-(2,3-dihydrobenzo[b][1,4]dioxin-6-yl)-2-methylbenzyl)oxy)benzyl)amino)-3-methoxypropanoic acid], the IC50 (value given as range class) is 0.6 to 10 nM.
